Laboratory results reported in PubChem BioAssay AID1576 (EPA DSSTox, 2009).
Calls of active or inactive are those of the source.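 Rule for the calls: active = chemicals shown by follow-up kinetic tests to compete for rat estrogen receptor sites, with a measured inhibition constant; inconclusive = some binding seen but constant unmeasurable owing to poor solubility; inactive = no binding up to top dose, or binding unconfirmed.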

Biological target: Estrogen receptor (Rattus norvegicus) (UniProt P06211)
Sequence (P06211 whole entry, looked up): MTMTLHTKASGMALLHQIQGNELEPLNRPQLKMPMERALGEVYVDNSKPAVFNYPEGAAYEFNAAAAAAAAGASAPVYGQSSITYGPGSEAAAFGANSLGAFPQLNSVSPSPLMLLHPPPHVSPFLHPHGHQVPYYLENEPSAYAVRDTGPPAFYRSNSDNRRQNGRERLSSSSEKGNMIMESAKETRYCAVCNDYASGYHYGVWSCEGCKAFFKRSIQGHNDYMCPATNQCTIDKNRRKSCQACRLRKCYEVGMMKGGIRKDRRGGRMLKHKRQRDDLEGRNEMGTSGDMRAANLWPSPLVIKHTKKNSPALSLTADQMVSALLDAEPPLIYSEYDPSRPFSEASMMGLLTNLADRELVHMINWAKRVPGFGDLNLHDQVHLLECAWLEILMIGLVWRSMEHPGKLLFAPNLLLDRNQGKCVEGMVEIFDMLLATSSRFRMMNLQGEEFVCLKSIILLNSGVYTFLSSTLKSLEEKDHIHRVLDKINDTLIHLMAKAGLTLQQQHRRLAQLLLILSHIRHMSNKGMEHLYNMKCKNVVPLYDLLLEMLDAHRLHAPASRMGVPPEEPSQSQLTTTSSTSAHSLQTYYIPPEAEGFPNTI
Test: DSSTox (KIERBL) EPA Estrogen Receptor Ki Binding Study (Laws et al.) Database
Details: Rat uterine cytosol ER, 3H-estradiol competitive binding
Procedure: This study was conducted by EPA researchers to evaluate the validity of the rat uterine cytosolic (RUC) estrogen receptor (ER) competitive binding assay for use in the Endocrine Disruption Screening Program (EDSP). The assay measures the ability of radiolabeled 17-beta-estradiol (3H-E2) to bind with RUC ER in the presence of increasing concentrations of a test chemical. The goal is to employ this in vitro assay as a 1st tier screening tool for assessing the potential of structurally diverse environmental chemicals to bind to the ER, as well as to support research efforts to develop computational models to predict ER binding. A distinguishing feature of the present study was the use of secondary experimental analysis of binding curves and determination of Ki values to confirm that measured IC50 values corresponded to true positive results. The study concluded that a number of experimental conditions can confound interpretation of IC50 values obtained from the RUC ER-binding assay data and lead to false positive results. In particular, some chemical treatments likely alter the stability of the assay by changing the buffer pH, denaturing ER, or disrupting the ER binding kinetics. […] The chemicals used in this study were selected as part of a validation test for two Quantitative Structure-Activity Relationship (QSAR) models designed to predict ER binding [Fed. Reg. 67(250), 79618, Dec. 30, 2002]. Several hundred chemicals were initially screened, including approximately 100 chemicals selected from among the High Production Volume (HPV) chemicals included in EPA's Toxic Substances Control Act (TSCA) inventory that were predicted to be positive for ER binding, with the rest selected at random from the TSCA inventory. All chemicals were initially tested in ER competitive binding assays by Battelle Pacific Northwest Laboratories, Richland, Washington [EPA Contract Number 68-W-99-033, Task 6]. Approximately 50 chemicals produced binding curves that: (1) strongly implied competitive inhibition of ER binding, or (2) produced partial curves or irregular (non-sigmoid) binding curves. These chemicals were further evaluated in an ER competitive binding assay with secondary analysis to confirm true competitive inhibition and to determine an experimental Ki [U.S. EPA Contract 3D-5967-NTEX]. The results of RUC ER screening for these 50 structurally diverse chemicals, for which secondary confirmatory analyses were performed, were published in the Main Citation (Laws et al., 2006, Tox. Sci. 94:46-56). The remaining 228 chemicals were designated as non-binders based on initial screening studies.
The DSSTox KIERBL data files include all published IC50 and Ki experimental results for the 50 chemicals included in the Main Citation (Laws et al., 2006) (denoted Group 1), as well as previously unpublished results for an additional 228 structually diverse TSCA chemicals for which no ER binding was observed (denoted Group 2. IC50 values were determined for 32 compounds in Group 1 as the concentration of a test chemical that inhibits the maximal specific binding of 0.33 nM radiolabeled (3H) 17-beta-estradiol (E2) to rat uterine cytosolic (RUC) estrogen receptor (ER) by 50%. Confirmation of binding status was accomplished by secondary analysis using Lineweaver-Burk plots and slope replots to determine true competitive inhibition and an experimental Ki value. Ki is the inhibition constant for the test chemical, i.e., the concentration of the test chemical that will bind to half the binding sites at equilibrium (displacing half of the probe-bound receptors), in the absence of radioligand or other competitors. Ki reported as Mean +/- Standard Error from n=2 experiments (see StandardError_Ki_n2) and is determined from Lineweaver-Burk plots over the tested dose range (TestedRange_microM). For more information see BindingCurve_Group and BindingCurve_Details. […]

Compound | outcome
CCN(CCO)c1ccc(N=Nc2ccc([N+](=O)[O-])cc2Cl)cc1 | inactive; none
O=C1c2ccccc2C(=O)N1SC1CCCCC1 | inactive; none
CCCCCOC(C)=O | inactive; none
O=C(O)c1cc(O)c2ccccc2c1O | inactive; incomplete
CC(C)CCCCCOC(=O)CS | inactive; none
C=C(C)c1ccc(C(=C)C)cc1 | inactive; none
CC(CO)c1ccccc1 (centres undefined) | inactive; incomplete
CCCCNCCCCCCNCCCC | inactive; none
CCCCCCCC[Si](Cl)(Cl)Cl | inactive; none
O=C(O)c1ccccc1Br | inactive; none
C=CC(=O)OCCC(F)(F)C(F)(F)C(F)(F)C(F)(F)C(F)(F)C(F)(F)C(F)(F)C(F)(F)C(F)(F)C(F)(F)F | inactive; incomplete
O=C(Oc1cccc(O)c1)c1ccccc1 | inactive; none
O=C1OC2(c3ccc(O)cc3Oc3cc(O)ccc32)c2ccccc21 | inactive; none
OCCOc1ccc(OCCO)cc1 | inactive; none
c1ccc(-c2ccccc2)cc1 | inactive; none
O=Cc1ccc(F)cc1 | inactive; none
C=C[Si](C)(C)O[Si](C)(C)C=C | inactive; none
CCOC(=O)/C=C/c1ccc(/C=C/C(=O)OCC)cc1 | inactive; none
C(=NC1CCCCC1)=NC1CCCCC1 | inactive; none
CCCCS | inactive; none
CCCCCCCC=O | inactive; irregular
Cc1cc(Cc2cc(C)cc(C(C)(C)C)c2O)c(O)c(C(C)(C)C)c1 | inactive; none

Compound | outcome
OCCS | inactive; none
Nc1ccc(F)c(Cl)c1 | inactive; none
N#CCc1ccccc1 | inactive; none
OCC1CC2C=CC1C2 (centres undefined) | inactive; none
C=CC(=O)OCCOCCOC(=O)C=C | inactive; none
O=C(OCc1ccccc1)C(=O)OCc1ccccc1 | inactive; none
COCOC | inactive; none
O=C1OC2(c3ccc(O)cc3Oc3cc(O)ccc32)c2c(Cl)c(Cl)c(Cl)c(Cl)c21 | inactive; none
C1CCC(NC2CCCCC2)CC1 | inactive; none
C=CC(=O)OCC(C)C | inactive; none
COc1nc(C)nc(NC(=O)NS(=O)(=O)c2ccccc2Cl)n1 | inactive; none
Cc1cc(C(C)(C)C)cc(C)c1C | inactive; none
Nc1c(N=Nc2ccc([N+](=O)[O-])cc2)c(S(=O)(=O)O)cc2cc(S(=O)(=O)O)c(N=Nc3ccccc3)c(O)c12 | inactive; none
C=CS(=O)(=O)O | inactive; none
O=S(=O)(O)c1ccccc1Nc1ccc(C(=C2C=CC(=Nc3ccccc3)C=C2)c2ccc(Nc3ccccc3)cc2)cc1 | inactive; none
Cc1ccc2n[nH]nc2c1 | inactive; none
CO[Si](CCCNCCC[Si](OC)(OC)OC)(OC)OC | inactive; none
CCCCCCCCCCCCCCCCCCCCCCCCO | inactive; none
COc1ccccc1NC(=O)c1cc2ccccc2cc1O | inactive; none
C=CC(=O)OCC(C)O (centres undefined) | inactive; none
CCC[CH2][Sn]([CH2]CCC)([CH2]CCC)[O][Sn]([CH2]CCC)([CH2]CCC)[CH2]CCC | inactive; none
CCN=C1C=CC(=C(c2ccc(N(CC)CC)cc2)c2ccc(N(CC)CC)cc2)c2ccccc21 | inactive; none

Compound | outcome
O=CCCl | inactive; none
CC(C)(C)c1cc(-n2nc3ccc(Cl)cc3n2)c(O)c(C(C)(C)C)c1 | inactive; none
CCCCCCC(=O)O | inactive; none
CC(Cl)Cl | inactive; none
Cc1cc(C(C)(C)C)c(O)c(C)c1Cn1c(=O)n(Cc2c(C)cc(C(C)(C)C)c(O)c2C)c(=O)n(Cc2c(C)cc(C(C)(C)C)c(O)c2C)c1=O | inactive; none
ClCC1OCCO1 | inactive; none
COc1cc(S(=O)(=O)O)c(C)cc1N=Nc1c(O)ccc2cc(S(=O)(=O)O)ccc12 | inactive; none
COc1ccc(C=O)cc1OC | inactive; incomplete
Cc1cccc[n+]1[O-] | inactive; none
CCOC(=O)C(CC)C(=O)OCC | inactive; none
N#Cc1cc([N+](=O)[O-])ccc1N | inactive; none
CC(C)N | inactive; none
COc1ccc(C(=O)c2ccc(OC)cc2O)c(O)c1 | inactive; none
CC(C)(C)[Si](C)(C)Cl | inactive; none
CCOP(=S)(OCC)SCn1c(=O)oc2cc(Cl)ccc21 | inactive; none
CCCCOCCCOC(=O)COc1ccc(Cl)cc1Cl | inactive; none
C=CC(=O)OCCC(F)(F)C(F)(F)C(F)(F)C(F)(F)C(F)(F)C(F)(F)F | inactive; none
CCOc1ccc(NC(C)=O)cc1 | inactive; none
CO[Si](CCCCl)(OC)OC | inactive; none
ClC(Cl)C(Cl)Cl | inactive; none
CCOC(=O)c1ccccc1 | inactive; none
COc1cc(Cl)c(OC)cc1Cl | inactive; none

Compound | outcome
CN(C)Cc1cc(CN(C)C)c(O)c(CN(C)C)c1 | inactive; none
Oc1ccc2ccccc2c1N=Nc1ccccc1 | inactive; none
CCOc1ccc2c(c1)C(C)=CC(C)(C)N2 | inactive; none
CCCCCCCCCCCCCCCCCCOC(=O)CCc1cc(C(C)(C)C)c(O)c(C(C)(C)C)c1 | inactive; none
CC(C)(C)c1cc(C(C)(C)c2ccc(O)c(C(C)(C)C)c2)ccc1O | inactive; incomplete
COC(=O)CCCCC(=O)OC | inactive; none
CCO[Si](CCCN=C=O)(OCC)OCC | inactive; none
CC/C=C\CCOC(=O)c1ccccc1O | inactive; incomplete
O=C(O)CCCCC(=O)O | inactive; none
N#CCCSCCC#N | inactive; none
Cc1cscn1 | inactive; none
O=C1OS(=O)(=O)c2ccccc21 | inactive; none
NNC(=O)NN | inactive; none
CCN(CC)c1nc(C)cc(OP(=S)(OC)OC)n1 | inactive; none
CC(C)COC(=O)CC(C(=O)OCC(C)C)S(=O)(=O)O (centres undefined) | inactive; none
CCc1ccc(CC)cc1 | inactive; none
CC(C)CCC(C)Nc1ccc(NC(C)CCC(C)C)cc1 (centres undefined) | inactive; none
O=C(O)c1ccccc1COc1ccccc1 | inactive; none
CCCCCCCCCCCCCCCCCCN=C=O | inactive; none
C(CCOCC1CO1)COCC1CO1 (centres undefined) | inactive; none

Same assay, conditions: Rat uterine cytosol ER, 3H-estradiol competitive binding; TestedRange_microM: 0.5-10

Compound | outcome
CCCCCCCCCCCCCCCCCC[N+](C)(C)CCC[Si](OC)(OC)OC | inactive; irregular

Same assay, conditions: Rat uterine cytosol ER, 3H-estradiol competitive binding; TestedRange_microM: 0.6-1.2

Compound | Potency [µM]
CC(C)CCCCCCc1ccc(O)cc1 | 0.6

Same assay, conditions: Rat uterine cytosol ER, 3H-estradiol competitive binding; TestedRange_microM: 1-10

Compound | outcome
CCCCCCCCCCCCCCN(C)C | inactive; complete

Same assay, conditions: Rat uterine cytosol ER, 3H-estradiol competitive binding; TestedRange_microM: 3-30

Compound | Potency [µM]
CC(C)(c1ccccc1)c1ccc(O)cc1 | 16.5

Same assay, conditions: Rat uterine cytosol ER, 3H-estradiol competitive binding; TestedRange_microM: 10-100

Compound | Potency [µM]
O=C(c1ccccc1)c1ccc(O)c(O)c1O | 103

Same assay, conditions: Rat uterine cytosol ER, 3H-estradiol competitive binding; TestedRange_microM: 20-70

Compound | Potency [µM]
CC(c1ccc(O)cc1)(c1ccc(O)cc1)c1ccc(O)cc1 | 18.3

Same assay, conditions: Rat uterine cytosol ER, 3H-estradiol competitive binding; TestedRange_microM: 25-75

Compound | Potency [µM]
CC(C)(c1ccc(O)cc1)c1ccc(O)cc1 | 24.8
O=C(OCc1ccccc1)c1ccc(O)cc1 | 34.2
